Data from the supplement of paper PMC10307832.

Assays:
Assay in all cases: relative viability (nuclei count vs DMSO), 5 days (fraction); higher = more cells survive
CUDC-101 + Bortezomib = compound: C#Cc1cccc(Nc2ncnc3cc(OC)c(OCCCCCCC(=O)NO)cc23)c1 [CUDC-101] + CC(C)C[C@H](NC(=O)[C@H](Cc1ccccc1)NC(=O)c1cnccn1)B(O)O [Bortezomib] (partner 0.002 µM)
Procedure, shortened: (§1)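 For relative viability, nuclei counts in treated wells were divided by those in vehicle wells. Lung cancer cell lines had been pin-tool dosed in 1536-well plates the day after seeding and cultured for 5 days, then fixed and stained in one step (final 0.05% Triton X-100, 1% formaldehyde, 1 ug/ml Hoechst) and imaged at 4×. Doses were one drug alone or a fixed anchor-drug dose plus five library-drug doses (not always all listed) in √10 steps, and values are duplicate-plate medians.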

[1] = compound: C1=CC=C2C(=C1)N=C(S2)C(C#N)C3=NC(=NC=C3)NCCC4=CN=CC=C4 + CC(C)C[C@H](NC(=O)[C@H](Cc1ccccc1)NC(=O)c1cnccn1)B(O)O [Bortezomib] (partner 0.002 µM)
Procedure, shortened: as §1

Vandetanib + Palbociclib = compound: COc1cc2/c(=N/c3ccc(Br)cc3F)nc[nH]c2cc1OCC1CCN(C)CC1 [Vandetanib] + CC(=O)c1c(C)c2cnc(Nc3ccc(N4CCNCC4)cn3)nc2n(C2CCCC2)c1=O [Palbociclib] (partner 0.5 µM)
Procedure, shortened: as §1

Vandetanib + Navitoclax = compound: COc1cc2/c(=N/c3ccc(Br)cc3F)nc[nH]c2cc1OCC1CCN(C)CC1 [Vandetanib] + CC1(C)CCC(c2ccc(Cl)cc2)=C(CN2CCN(c3ccc(C(=O)NS(=O)(=O)c4ccc(N[C@H](CCN5CCOCC5)CSc5ccccc5)c(S(=O)(=O)C(F)(F)F)c4)cc3)CC2)C1 [Navitoclax] (partner 0.5 µM)
Procedure, shortened: as §1

Cell Line	relative viability (CUDC-101 + Bortezomib; first compound 0.01 µM)	relative viability (CUDC-101 + Bortezomib; first compound 0.03162 µM)	relative viability (CUDC-101 + Bortezomib; first compound 0.1 µM)	relative viability (CUDC-101 + Bortezomib; first compound 0.3162 µM)	relative viability (CUDC-101 + Bortezomib; first compound 1 µM)	relative viability ([1]; first compound 0.005 µM)	relative viability ([1]; first compound 0.01581 µM)	relative viability ([1]; first compound 0.05 µM)	relative viability ([1]; first compound 0.5 µM)	relative viability (Vandetanib + Palbociclib; first compound 0.02 µM)	relative viability (Vandetanib + Palbociclib; first compound 0.06325 µM)	relative viability (Vandetanib + Palbociclib; first compound 0.2 µM)	relative viability (Vandetanib + Palbociclib; first compound 0.6325 µM)	relative viability (Vandetanib + Palbociclib; first compound 2 µM)	relative viability (Vandetanib + Navitoclax; first compound 0.02 µM)	relative viability (Vandetanib + Navitoclax; first compound 0.06325 µM)	relative viability (Vandetanib + Navitoclax; first compound 0.2 µM)	relative viability (Vandetanib + Navitoclax; first compound 0.6325 µM)	relative viability (Vandetanib + Navitoclax; first compound 2 µM)	relative viability ([1]; first compound 0.1581 µM)
NCI-H2405	0.969	1.04	0.936	1.02	0.982	1.04	0.965	0.982	0.998	0.494	0.39	0.514	0.592	0.514	0.786	0.426	0.889	1.23	0.696	–
NCI-H2087	0.813	0.871	0.614	0.754	0.445	0.567	0.809	0.786	0.512	0.244	0.196	0.183	0.281	0.212	1.02	0.832	0.948	1.16	1.08	0.834
NCI-H2023	0.932	0.935	1.08	1.26	0.844	0.893	0.956	0.942	1.02	0.359	0.369	–	0.314	0.319	0.898	0.971	1.04	1.01	0.996	1.14
NCI-H3122	1.06	0.984	1.05	1.01	1.01	0.877	1.05	0.958	1.07	0.198	0.183	0.126	0.178	0.228	0.99	0.998	1.03	0.994	1.03	1.05
ChaGo-K-1	1.22	1.31	0.821	1.03	0.963	0.87	–	0.936	0.845	0.921	0.881	0.19	0.887	0.927	0.939	0.998	0.942	1.24	0.489	1.1
NCI-H2347	0.94	1.05	0.866	0.95	0.805	1.12	1.07	–	0.962	0.423	0.315	0.476	0.457	0.443	0.878	0.453	0.834	0.945	0.708	1.13
NCI-H460	1.13	1.04	1.09	1.11	1.18	–	1.09	1.08	0.609	0.147	0.157	0.189	0.148	0.166	1.13	0.999	0.0215	1.25	1.09	1.42
HCC-827	1.08	1.07	0.788	0.439	0.344	0.999	1.04	1.09	1.06	0.479	0.468	0.227	0.263	0.166	1.04	0.975	0.993	0.464	0.153	1.15
HOP-62	0.605	0.773	1.09	0.667	0.473	0.798	0.576	0.907	0.738	0.421	0.437	0.431	0.509	0.412	0.975	1.07	0.999	1.18	1.01	1.09
NCI-H1792	0.98	0.965	0.918	0.952	0.965	–	1.04	0.941	0.534	0.639	0.626	0.636	0.634	0.501	0.676	0.573	0.599	0.626	0.609	1.11
HCC-15	1.03	1.08	1.02	1	0.851	0.835	1.02	1.15	0.835	0.647	0.713	0.646	0.75	0.721	0.685	0.702	0.682	0.756	0.649	1.13
NCI-H1755	0.985	1.06	0.88	0.933	0.79	0.943	1.07	0.996	0.884	0.46	0.471	0.427	0.446	0.439	1.03	0.979	0.968	0.973	0.972	1.13
NCI-H23	0.922	0.935	1.18	1.13	0.955	–	0.917	1.01	0.92	0.416	0.427	0.489	0.54	0.495	0.782	0.8	0.769	0.914	0.688	1.37
BEN	0.882	0.759	0.779	0.75	0.543	0.699	0.818	0.869	0.893	0.458	0.46	0.443	0.479	0.448	0.0787	0.0663	0.063	0.0857	0.0698	1.02
NCI-H1703	0.401	–	0.305	0.194	0.13	0.318	0.416	0.307	0.466	–	–	–	–	–	1.15	–	1.27	0.575	0.256	0.33
NCI-H1944	–	–	–	–	–	–	–	–	–	0.323	0.343	0.322	0.276	0.303	1	1.05	1.05	1.01	0.86	–
NCI-H2170	–	–	–	–	–	–	–	–	–	0.402	0.434	0.398	0.376	0.394	0.621	0.618	0.565	0.567	0.502	–
NCI-H1395	–	–	–	–	–	–	–	–	–	0.635	0.602	0.641	0.609	0.567	1.11	1.06	1.04	1.25	1.29	–
NCI-H650	0.834	0.917	0.87	0.459	0.643	0.482	0.528	0.748	0.778	0.358	0.317	0.366	0.323	0.291	–	–	–	–	–	1.22

Cell Line	relative viability (CUDC-101 + Bortezomib; first compound 0.01 µM)	relative viability (CUDC-101 + Bortezomib; first compound 0.03162 µM)	relative viability (CUDC-101 + Bortezomib; first compound 0.1 µM)	relative viability (CUDC-101 + Bortezomib; first compound 0.3162 µM)	relative viability (CUDC-101 + Bortezomib; first compound 1 µM)	relative viability ([1]; first compound 0.005 µM)	relative viability ([1]; first compound 0.01581 µM)	relative viability ([1]; first compound 0.05 µM)	relative viability ([1]; first compound 0.5 µM)	relative viability (Vandetanib + Palbociclib; first compound 0.02 µM)	relative viability (Vandetanib + Palbociclib; first compound 0.06325 µM)	relative viability (Vandetanib + Palbociclib; first compound 0.2 µM)	relative viability (Vandetanib + Palbociclib; first compound 0.6325 µM)	relative viability (Vandetanib + Palbociclib; first compound 2 µM)	relative viability (Vandetanib + Navitoclax; first compound 0.02 µM)	relative viability (Vandetanib + Navitoclax; first compound 0.06325 µM)	relative viability (Vandetanib + Navitoclax; first compound 0.2 µM)	relative viability (Vandetanib + Navitoclax; first compound 0.6325 µM)	relative viability (Vandetanib + Navitoclax; first compound 2 µM)	relative viability ([1]; first compound 0.1581 µM)
EBC-1	0.658	0.421	0.409	0.245	0.153	0.52	0.545	0.544	0.504	–	–	–	–	–	0.36	0.39	0.449	0.366	0.38	0.666
NCI-H2342	–	–	–	–	–	–	–	–	–	0.525	0.507	0.518	0.477	0.569	–	–	–	–	–	–
NCI-H661	1.09	0.664	0.892	0.928	0.8	0.708	0.824	0.662	0.794	0.4	0.411	0.433	0.458	0.392	–	–	–	–	–	0.695
SW 900	–	–	–	–	–	–	–	–	–	0.624	0.547	–	0.48	0.409	–	–	–	–	–	–
IA-LM	0.772	0.781	0.795	0.575	0.196	–	0.844	0.697	0.855	–	–	–	–	–	0.648	0.661	0.878	1.1	1.29	0.839
SK-MES-1	–	–	–	–	–	–	–	–	–	0.349	0.292	0.243	0.332	0.294	1.26	1.04	1.24	1.27	1.2	–
NCI-H522	–	–	–	–	–	–	–	–	–	0.89	0.909	1.14	0.961	0.986	–	–	–	–	–	–
NCI-H358	–	–	–	–	–	–	–	–	–	0.146	0.162	0.119	0.133	0.109	–	–	–	–	–	–
NCI-H1299	1.05	0.997	1.07	1.05	1.03	1.08	1.08	1.04	1.05	–	–	–	–	–	1	1.01	1.05	1.08	1.03	1.01
ABC-1	0.243	0.247	0.269	0.24	0.18	0.348	0.292	0.262	0.387	0.91	0.541	0.693	0.708	0.643	–	–	–	–	–	0.313
NCI-H596	1.13	1.13	1.18	0.98	1	0.72	0.969	0.938	1.16	–	–	–	–	–	0.942	0.976	1.05	0.94	0.795	1.43
LK-2	–	–	–	–	–	–	–	–	–	0.57	0.811	0.859	0.58	0.66	0.761	0.759	0.913	0.936	0.721	–
NCI-H1563	0.842	0.712	0.948	0.916	0.792	0.808	0.769	0.886	0.798	–	–	–	–	–	–	–	–	–	–	0.873
NCI-H1793	–	–	–	–	–	–	–	–	–	0.325	0.305	0.302	0.296	0.261	0.57	0.338	0.488	0.319	0.389	–
NCI-H1648	–	–	–	–	–	–	–	–	–	0.27	0.245	0.2	0.284	0.24	–	–	–	–	–	–
LCLC-103H	1.17	1.03	1.01	1.14	0.68	0.96	0.984	1.07	0.91	0.439	0.521	0.388	0.478	0.406	–	–	–	–	–	1.23
A549	–	–	–	–	–	–	–	–	–	–	–	–	–	–	1.12	1.23	1.12	1.08	1.22	–
Calu-6	0.955	1.07	1.05	1.06	0.815	0.943	0.946	0.912	0.915	–	–	–	–	–	0.891	0.761	0.973	0.895	0.734	1.02
